Reference: PubChem BioAssay (NCI)
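48-hour exposure; five concentrations; linearly interpolated endpoints. GI50 = concentration required for 50% inhibition of growth. The concentration for full growth arrest is given as TGI.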

How the values were obtained:
Experiment in all cases: NCI anticancer screen, dose series, 48 h
MDA-MB-231 breast = system: MDA-MB-231 breast
SK-MEL-28 melanoma = system: SK-MEL-28 melanoma
M14 melanoma = system: M14 melanoma
RPMI-8226 leukemia = system: RPMI-8226 leukemia
LOX IMVI melanoma = system: LOX IMVI melanoma
TK-10 renal = system: TK-10 renal
SF-539 CNS = system: SF-539 CNS
SF-268 CNS = system: SF-268 CNS
SR leukemia = system: SR leukemia
CCRF-CEM leukemia = system: CCRF-CEM leukemia

Compound	TGI (MDA-MB-231 breast) [µM]	TGI (SK-MEL-28 melanoma) [µM]	TGI (M14 melanoma) [µM]	TGI (RPMI-8226 leukemia) [µM]	TGI (LOX IMVI melanoma) [µM]	TGI (TK-10 renal) [µM]	TGI (SF-539 CNS) [µM]	TGI (SF-268 CNS) [µM]	TGI (SR leukemia) [µM]	GI50 (MDA-MB-231 breast) [µM]	GI50 (SK-MEL-28 melanoma) [µM]	GI50 (CCRF-CEM leukemia) [µM]	TGI (CCRF-CEM leukemia) [µM]	GI50 (M14 melanoma) [µM]	GI50 (LOX IMVI melanoma) [µM]	GI50 (TK-10 renal) [µM]	GI50 (SF-539 CNS) [µM]	GI50 (SF-268 CNS) [µM]	GI50 (SR leukemia) [µM]	GI50 (RPMI-8226 leukemia) [µM]
COc1ccc(-c2cc(-c3cc(C)cc(Br)c3O)no2)cc1	64.6	> 100	> 100	> 100	> 100	38.5	25	22.8	> 100											
CCCCC(CC)COC(=O)C[N+](C)(C)CCOC(c1ccccc1)c1ccccc1 (stereo not given)	3.88	3.31	3.23		3.02	17.6	5.27	4.77	5.16	1.83	1.8	3.17	11.7	1.63	1.66	4.26	2.32	2.01	2.18	
COc1cc(OC)c(C(=O)/C=C/c2cccc(C(F)(F)F)c2)c(OC)c1	6.05	4.74	2.62	2.85	2.42	6.01	3.5	6.13	3.13	1.76	1.51	1.09	3.46	1.06	1.04	1.85	1.37	1.64	0.826	1.03
CCOC(=O)C1CCN(S(=O)(=O)/N=C2/NC(=O)NC2=C(Cl)Cl)CC1	3.54	3.51	3.6	10.1		> 100	4.44	7.43	4.96	1.94	1.8	1.23	3.16	1.82		1.25	0.525	1.93	0.731	0.327
CCc1nc2cc(F)c(/C=C/C(=O)NO)cc2c(=O)n1CCc1ccccc1	15.3	11.5	4.78	19.9	0.46	0.838	3.36	10.1	53.3	0.376	0.381	0.4	> 100	0.355	0.208	0.256	0.341	0.355	0.354	0.387
C=C1C(=O)O[C@H]2[C@H]1CC/C(COC(=O)NCCCCNC(=O)OC/C1=C/CC[C@@]3(C)O[C@H]3[C@H]3OC(=O)C(=C)[C@@H]3CC1)=C\CC[C@@]1(C)O[C@@H]21	3.24	2.3	4.82	3.08	1.92	4.12	3.71	12.6	3.51	1.53	0.529	0.272	0.845	1.97	0.519	1.61	1.55	3.18	0.549	0.547
COc1ccc(/C=C/c2c(C(=O)/C=C/c3ccccc3)c(C)nc3ccccc23)cc1	7.87	3.47	4.44	5.54	3.08	5.73	3.2	5.65	7.19	2.43	1.88	2.33	> 100	1.84	1.69	2.55	1.76	2.18	1.56	1.74
CCCC(CCC)NCC(O)c1cc(-c2ccc(C(F)(F)F)cc2)nc(C(F)(F)F)c1 (stereo not given)	3.17	3.45	3.32	4.87	2.97	3.44	3.26	3.38	3.27	1.53	1.92	2.46	5.7	1.75	1.53	1.98	1.67	1.86	1.4	2.15
COc1ccc(C(=O)c2cc(C)c(OC)c(C)c2)c(OC)c1O	> 100	> 100		> 62.6	> 100	> 100	0.0532	> 100	> 100	0.0587	1.42	0.0323	> 100		0.0381	25	0.0206	0.207		0.0463
Cc1cc(C)c(NC(=O)c2sc3nc4c(cc3c2N)C(=O)CCC4)c(C)c1	> 100	> 100	> 100	> 100	> 100	> 87.9	> 30.6	> 100	> 55.3	7.26	5.9	3.15	> 100	2.31	5.39	4.5	2.59	6.69	3	4.74
S=c1ssc(N2CCOCC2)c1Cl	> 100	57.9	> 100	69.2	37.8	> 100	76.3	71	65.9	26.6	38.2			> 100	17.7	16	31.4	23.3	13.3	23.3
Cc1cc2nc(C=C(C(F)(F)F)C(F)(F)F)oc2cc1C	5.42	> 10	5.03	5.62	3.96	5.16	6.43	9	> 10				6.74							
O=C(Nc1n[nH]c2cc(-c3ccccc3)ccc12)C1CC1	> 25	> 25	> 25	> 25	> 25	> 25	> 25	> 25	> 25	14.7	> 22.1	8.59	> 25	15.4	16	> 25	13	> 21.2	3.31	9.58
